Data published in patent US10588317B2, “Isoxazoline-substituted benzamides and analogues as insecticides” (priority 2015, dated 2020).

What was measured:
Type in all cases: in vivo
[1] = tested on: Tetranychus urticae; assay: Tetranychus urticae (two-spotted spider mite): feeding/contact activity; settings: 192 h, application rate 200 ppm, mixed population (mobile stages), 8 days after infestation, read-out: mortality
Method: Bean leaf discs on agar in 24-well microtiter plates were sprayed with aqueous test solutions prepared from 10'000 ppm DMSO stock solutions. After drying the leaf discs were infested with a mite population of mixed ages. The samples were assessed for mortality on mixed population (mobile stages) 8 days after infestation.

[2] = tested on: Spodoptera littoralis; assay: Spodoptera littoralis (Egyptian cotton leaf worm), uptake by lettuce roots from agar; settings: 144 h, read-out: effect in at least one of the three categories (mortality, anti-feeding, or growth inhibition); for percent effect (mortality, anti-feeding or growth inhibition) at 12.5 ppm: test rate 12.5 ppm, eggs, 6 days after infestation
From the text: Test compounds were applied by pipette from 10'000 ppm DMSO stock solutions into 24-well plates and mixed with agar. Lettuce seeds were placed onto the agar and the multi well plate was closed by another plate which contained also agar. After 7 days the compound was absorbed by the roots and the lettuce grew into the lid plate. The lettuce leaves were then cut off into the lid plate. Spodoptera eggs were pipetted through a plastic stencil onto a humid gel blotting paper and the lid plate was closed with it. The samples were assessed for mortality, anti-feedant effect and growth inhibition in comparison to untreated samples 6 days after infestation.
The following compounds gave an effect of at least 80% in at least one of the three categories (mortality, anti-feeding, or growth inhibition) at a test rate of 12.5 ppm: […]

[3] = tested on: Spodoptera littoralis; assay: Spodoptera littoralis (Egyptian cotton leaf worm), sprayed cotton leaf discs; settings: foliar, 72 h, application rate 200 ppm, L1 larvae, 3 days after infestation, read-out: control (mortality, anti-feeding effect, growth inhibition)
Summary of the method: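 Five first-instar larvae placed on dried cotton leaf discs (on agar) previously sprayed with aqueous dilutions of 10'000 ppm DMSO stocks. Scored at 3 days against untreated discs for mortality, feeding inhibition and growth inhibition; any category above untreated counts as control.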

[4] = tested on: Plutella xylostella; assay: Plutella xylostella (diamond back moth), artificial diet; settings: 120 h, application rate 200 ppm, L2 larvae, 5 days after infestation, read-out: effect in at least one of the two categories (mortality or growth inhibition)
Summary of the method: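 L2 larvae (10-15 per well) fed on compound-treated, dried artificial diet; test solutions diluted in water from 10'000 ppm DMSO stocks. Readout 5 days post-infestation as mortality or growth inhibition versus untreated diet, with at least 80% effect at 200 ppm as threshold.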

[5] = tested on: Diabrotica balteata; assay: Diabrotica balteata (corn root worm), sprayed maize sprouts; settings: 96 h, application rate 200 ppm, L2 larvae, 4 days after infestation, read-out: effect in at least one of the two categories (mortality or growth inhibition)
Summary of the method: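 Read-out at 4 days post-infestation: mortality and growth inhibition relative to untreated samples. Test solutions (200 ppm, from DMSO stocks) were sprayed onto agar-held maize sprouts, which after drying received 6–10 L2 larvae per well.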

[6] = tested on: Myzus persicae; assay: Myzus persicae (green peach aphid): feeding/contact activity; settings: 144 h, application rate 200 ppm, aphid population of mixed ages, 6 days after infestation, read-out: mortality
Method: (§1) Sunflower leaf discs were placed onto agar in a 24-well microtiter plate and sprayed with aqueous test solutions prepared from 10'000 ppm DMSO stock solutions. After drying, the leaf discs were infested with an aphid population of mixed ages. The samples were assessed for mortality 6 days after infestation.

[7] = tested on: Thrips tabaci; assay: Thrips tabaci (onion thrips): feeding/contact activity; settings: 144 h, application rate 200 ppm, Thrips population of mixed ages, 6 days after infestation, read-out: mortality
Method: as §1, with “on” for “onto”, “in” for “in a”, “plates” for “plate”, “drying” for “drying,”, “a Thrips” for “an aphid”

[8] = tested on: Euschistus heros; assay: Euschistus heros (neotropical brown stink bug), sprayed soybean leaves; settings: 120 h, application rate 200 ppm, N2 nymphs, 5 days after infestation, read-out: effect in at least one of the two categories (mortality or growth inhibition)
Summary of the method: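 Scored 5 days post-infestation versus untreated controls, for both mortality and growth inhibition: N2 nymphs placed on agar-mounted soybean leaves previously sprayed at 200 ppm with aqueous test solutions from DMSO stocks and left to dry.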

Cc1cc(C2=NO[C@@](c3cc(Cl)c(F)c(Cl)c3)(C(F)(F)F)C2)ccc1C(=O)NC1CON(S(C)(=O)=O)C1 (stereo partly drawn) [Compound A1, 4-[(5S)-5-(3,5-dichloro-4-fluoro-phenyl)-5-(trifluoromethyl)-4H-isoxazol-3-yl]-2-methyl-N-(2-methylsulfonylisoxazolidin-4-yl)benzamide]
≥ 80%: mortality at 200 ppm [1] | percent control (mortality, anti-feedant effect or growth inhibition) at 12.5 ppm [2] | mortality at 200 ppm [3] | percent effect (mortality or growth inhibition) at 200 ppm [4] | percent effect (mortality or growth inhibition) at 200 ppm [5] | mortality at 200 ppm [6] | mortality at 200 ppm [7]

Cc1cc(C2=NO[C@@](c3cc(Br)cc(C(F)(F)F)c3)(C(F)(F)F)C2)ccc1C(=O)NC1CON(S(C)(=O)=O)C1 (stereo partly drawn) [Compound A16]
≥ 80%: mortality at 200 ppm [1] | percent effect (mortality, anti-feeding or growth inhibition) at 12.5 ppm [2] | mortality at 200 ppm [3] | percent effect (mortality or growth inhibition) at 200 ppm [4] | percent effect (mortality or growth inhibition) at 200 ppm [5] | mortality at 200 ppm [6] | mortality at 200 ppm [7]

CN(C)S(=O)(=O)N1CC(NC(=O)c2ccc(C3=NO[C@@](c4cc(Cl)c(F)c(Cl)c4)(C(F)(F)F)C3)cc2Cl)CO1 (stereo partly drawn) [Compound A21]
≥ 80%: mortality at 200 ppm [1] | percent control (mortality, anti-feedant effect or growth inhibition) at 12.5 ppm [2] | mortality at 200 ppm [3] | percent effect (mortality or growth inhibition) at 200 ppm [4] | percent effect (mortality or growth inhibition) at 200 ppm [5] | mortality at 200 ppm [6] | mortality at 200 ppm [7]

Cc1cc(C2=NO[C@@](c3cc(Cl)cc(C(F)(F)F)c3)(C(F)(F)F)C2)ccc1C(=O)NC1CON(S(=O)(=O)N(C)C)C1 (stereo partly drawn) [Compound A22]
≥ 80%: mortality at 200 ppm [1] | percent control (mortality, anti-feedant effect or growth inhibition) at 12.5 ppm [2] | mortality at 200 ppm [3] | percent effect (mortality or growth inhibition) at 200 ppm [4] | percent effect (mortality or growth inhibition) at 200 ppm [5] | mortality at 200 ppm [6] | mortality at 200 ppm [7]

Cc1cc(C2=NO[C@@](c3cc(Br)cc(C(F)(F)F)c3)(C(F)(F)F)C2)ccc1C(=O)NC1CON(S(=O)(=O)N(C)C)C1 (stereo partly drawn) [Compound A23]
≥ 80%: mortality at 200 ppm [1] | percent effect (mortality, anti-feeding or growth inhibition) at 12.5 ppm [2] | mortality at 200 ppm [3] | percent effect (mortality or growth inhibition) at 200 ppm [4] | percent effect (mortality or growth inhibition) at 200 ppm [5] | mortality at 200 ppm [6] | mortality at 200 ppm [7]

CS(=O)(=O)N1CC(NC(=O)c2ccc(C3=NOC(c4cc(Cl)cc(Cl)c4)(C(F)(F)F)C3)cc2C2CC2)CO1 (stereo not drawn) [Compound A52]
≥ 80%: mortality at 200 ppm [1] | percent effect (mortality or growth inhibition) at 200 ppm [8] | percent control (mortality, anti-feedant effect or growth inhibition) at 12.5 ppm [2] | mortality at 200 ppm [3] | percent effect (mortality or growth inhibition) at 200 ppm [4] | percent effect (mortality or growth inhibition) at 200 ppm [5] | mortality at 200 ppm [7]

Cc1cc(C2=NOC(c3cc(C(F)(F)F)c(Cl)c(C(F)(F)F)c3)(C(F)(F)F)C2)ccc1C(=O)NC1CON(S(C)(=O)=O)C1 (stereo not drawn) [Compound A57]
≥ 80%: mortality at 200 ppm [1] | percent effect (mortality or growth inhibition) at 200 ppm [8] | percent control (mortality, anti-feedant effect or growth inhibition) at 12.5 ppm [2] | mortality at 200 ppm [3] | percent effect (mortality or growth inhibition) at 200 ppm [4] | percent effect (mortality or growth inhibition) at 200 ppm [5] | mortality at 200 ppm [7]

CCS(=O)(=O)N1C[C@@H](NC(=O)c2ccc(C3=NO[C@@](c4cccc(C(F)(F)F)c4)(C(F)(F)F)C3)cc2C)CO1 [Compound A160]
≥ 80%: mortality at 200 ppm [1] | percent effect (mortality or growth inhibition) at 200 ppm [8] | percent effect (mortality, anti-feeding or growth inhibition) at 12.5 ppm [2] | mortality at 200 ppm [3] | percent effect (mortality or growth inhibition) at 200 ppm [4] | percent effect (mortality or growth inhibition) at 200 ppm [5] | mortality at 200 ppm [7]

Cc1cc(C2=NOC(c3cc(Cl)cc(Cl)c3)(C(F)(F)F)C2)ncc1C(=O)NC1CON(S(C)(=O)=O)C1 (stereo not drawn) [Compound A236]
≥ 80%: mortality at 200 ppm [1] | percent effect (mortality or growth inhibition) at 200 ppm [8] | percent control (mortality, anti-feedant effect or growth inhibition) at 12.5 ppm [2] | mortality at 200 ppm [3] | percent effect (mortality or growth inhibition) at 200 ppm [4] | percent effect (mortality or growth inhibition) at 200 ppm [5] | mortality at 200 ppm [7]
